Data as given in the NIST ThermoML archive (doi:10.1021/je400551d).
Values joined by “and” are separate entries in the source; they are usually repeats but may differ in a detail not shown here. Equal values may be shown once. ± gives the expanded uncertainty stated by the source.

Conditions: Liquid, Manometric method

OCCO [1,2-ethanediol]
Conditions	vapor or sublimation pressure [kPa]
336.45 K	0.2527 ± 0.078
345 K	0.4838 ± 0.079
355.15 K	0.9002 ± 0.08
369.25 K	1.69 ± 0.21
374.45 K	2.13 ± 0.21
378.95 K	2.66 ± 0.22
384.45 K	3.57 ± 0.22
388.1 K	4.4 ± 0.22
391.45 K	5.33 ± 0.22
394.56 K	6.01 ± 0.23
397.25 K	7.14 ± 0.23
404.05 K	9.2 ± 0.23
408.25 K	11.34 ± 0.24

COC(N)=O [carbamic acid, methyl ester]
Conditions	vapor or sublimation pressure [kPa]
341.45 K	1.31 ± 0.21
350.9 K	1.91 ± 0.21
356.06 K	2.5 ± 0.22
360.75 K	3.55 ± 0.22
364.43 K	4.19 ± 0.22
367 K	4.48 ± 0.22
371.7 K	5.42 ± 0.22
373.85 K	6.23 ± 0.23
377.23 K	7.14 ± 0.23
384.9 K	9.83 ± 0.23
387.17 K	10.96 ± 0.24
390.5 K	12.39 ± 0.24
393.75 K	13.99 ± 0.24

CCCCCCCCCC [decane]
Conditions	vapor or sublimation pressure [kPa]
299.25 K	0.1732 ± 0.078
306.95 K	0.3091 ± 0.078
309.15 K	0.4116 ± 0.079
316.26 K	0.6545 ± 0.079
326.1 K	1.04 ± 0.21
340.05 K	1.95 ± 0.21
347.9 K	2.97 ± 0.22
353.32 K	3.8 ± 0.22
358.67 K	4.82 ± 0.22
362.85 K	5.92 ± 0.23
365.13 K	6.96 ± 0.23
370.4 K	8.23 ± 0.23
377.13 K	10.48 ± 0.23
379.93 K	12 ± 0.24
382.83 K	13.25 ± 0.24

COC(=O)Nc1ccccc1 [methyl N-phenylcarbamate]
Conditions	vapor or sublimation pressure
372.5 K	0.2093 ± 0.078 kPa
374.46 K	0.2248 ± 0.078 kPa
376.9 K	0.254 ± 0.078 kPa
379.05 K	0.308 ± 0.078 kPa
380.65 K	0.3343 ± 0.078 kPa
383.31 K	0.3891 ± 0.079 kPa
385.85 K	0.4487 ± 0.079 kPa
387.85 K	0.4996 ± 0.079 kPa
390.35 K	0.5609 ± 0.079 kPa
391.76 K	0.5914 ± 0.079 kPa
394.05 K	0.651 ± 0.079 kPa
395.8 K	0.719 ± 0.08 kPa
397.05 K	0.7885 ± 0.08 kPa and 0.7897 ± 0.08 kPa
399.63 K	0.9364 ± 0.08 kPa
399.83 K	0.9418 ± 0.08 kPa
402.15 K	1.06 ± 0.21 kPa
409.85 K	1.29 ± 0.21 kPa
412.9 K	1.54 ± 0.21 kPa
415.9 K	1.97 ± 0.21 kPa
418.45 K	2.13 ± 0.21 kPa

O [water]
Conditions	vapor or sublimation pressure [kPa]
280.2 K	1.29 ± 0.21
282.23 K	1.34 ± 0.21
287.9 K	1.82 ± 0.21
292.36 K	2.13 ± 0.22
296.13 K	2.78 ± 0.22
300.7 K	3.47 ± 0.22
304.8 K	4.54 ± 0.22
306.67 K	4.82 ± 0.22
309.65 K	5.9 ± 0.23
312.07 K	6.75 ± 0.23
314.95 K	7.78 ± 0.23
316.65 K	8.45 ± 0.25
317.9 K	9.45 ± 0.25
320.04 K	10.62 ± 0.24
322.75 K	11.78 ± 0.24
